Reference: ChEMBL document CHEMBL6153126, “Design, Synthesis, and Activity Evaluation of Novel Bifenamide Dual-Target Antibacterial Inhibitors and Carrier Based on Infectious Microenvironment” (J Med Chem, 2025)
Activity calls are given as the source filed them. The rule behind the calls is not given here.

Key:
[1] = target: T1, UDP-3-O-acyl-N-acetylglucosamine deacetylase (Escherichia coli K-12, UniProt P0A725); assay: Binding affinity to Escherichia coli LpxC assessed as dissociation constant by SPR analysis
T1 sequence (P0A725 whole entry): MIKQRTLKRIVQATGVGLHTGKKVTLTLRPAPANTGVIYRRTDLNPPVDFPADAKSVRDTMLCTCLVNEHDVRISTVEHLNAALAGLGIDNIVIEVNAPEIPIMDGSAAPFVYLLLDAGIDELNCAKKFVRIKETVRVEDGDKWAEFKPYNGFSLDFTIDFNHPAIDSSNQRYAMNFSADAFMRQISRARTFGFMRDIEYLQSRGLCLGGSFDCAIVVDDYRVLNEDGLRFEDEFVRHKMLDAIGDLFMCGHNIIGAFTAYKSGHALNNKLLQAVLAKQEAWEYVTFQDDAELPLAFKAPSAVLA

[2] = Binding affinity to PD-L1 (unknown origin) assessed as dissociation constant by SPR analysis; design: species or system Homo sapiens
[3] = target: Programmed cell death 1 ligand 1 (Homo sapiens) (UniProt Q9NZQ7); assay: Binding affinity to PD-L1 (unknown origin) assessed as Change in enthalpy by ITC analysis
Programmed cell death 1 ligand 1 (Homo sapiens), sequence (Q9NZQ7 whole entry): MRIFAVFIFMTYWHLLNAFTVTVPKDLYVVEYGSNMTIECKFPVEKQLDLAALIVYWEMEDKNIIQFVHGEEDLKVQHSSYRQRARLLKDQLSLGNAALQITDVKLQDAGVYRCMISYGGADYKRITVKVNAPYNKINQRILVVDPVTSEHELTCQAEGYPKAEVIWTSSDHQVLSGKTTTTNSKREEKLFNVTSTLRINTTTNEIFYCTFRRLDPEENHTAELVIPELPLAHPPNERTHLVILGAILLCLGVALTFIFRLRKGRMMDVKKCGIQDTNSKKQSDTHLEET

[4] = test system: Klebsiella pneumoniae; assay: Antibacterial activity against Klebsiella pneumoniae ATCC 13883 infected in Kunming mouse model assessed as reduction in alveolar space in lung at 2 mg/kg, iv in presence of biphenyl isopropyl ester by H and E staining based analysis; type: functional, organism-based
[5] = test system: Klebsiella pneumoniae; assay: Antimicrobial activity against Klebsiella pneumoniae ATCC 13883 assessed as inhibition of microbial growth incubated for 64 hrs by broth-microdilution assay; type: functional
[6] = test system: Escherichia coli; assay: Antimicrobial activity against Escherichia coli ATCC 8739 assessed as inhibition of microbial growth incubated for 64 hrs by broth-microdilution assay; type: functional
[7] = test system: Salmonella typhimurium; assay: Antimicrobial activity against Salmonella typhimurium ATCC 14028 assessed as inhibition of microbial growth incubated for 64 hrs by broth-microdilution assay; type: functional, Salmonella enterica subsp. enterica serovar Typhimurium; settings: Salmonella enterica
[8] = test system: Pseudomonas aeruginosa; assay: Antimicrobial activity against Pseudomonas aeruginosa ATCC 9027 assessed as inhibition of microbial growth incubated for 64 hrs by broth-microdilution assay; type: functional
[9] = test system: Klebsiella pneumoniae; assay: Antimicrobial activity against Klebsiella pneumoniae ATCC 13883 assessed as inhibition zone; type: functional
[10] = test system: Pseudomonas aeruginosa; assay: Antimicrobial activity against Pseudomonas aeruginosa ATCC 9027 assessed as inhibition zone; type: functional; settings: time 64 hrs
[11] = test system: HeLa; assay: Cytotoxicity against human HeLa cells incubated for 24 hrs by CCK-8 assay; type: functional, cell-based
[12] = target: Programmed cell death protein 1/Programmed cell death 1 ligand 1 (Homo sapiens, UniProt Q9NZQ7); assay: Inhibition of PD-1/PD-L1 (unknown origin) protein-protein interaction preincubated for 15 mins followed by PD-1-Eu addition and measured after 90 mins by TR-FRET assay; type: protein-complex assay
Programmed cell death protein 1/Programmed cell death 1 ligand 1, sequence (Q15116 whole entry): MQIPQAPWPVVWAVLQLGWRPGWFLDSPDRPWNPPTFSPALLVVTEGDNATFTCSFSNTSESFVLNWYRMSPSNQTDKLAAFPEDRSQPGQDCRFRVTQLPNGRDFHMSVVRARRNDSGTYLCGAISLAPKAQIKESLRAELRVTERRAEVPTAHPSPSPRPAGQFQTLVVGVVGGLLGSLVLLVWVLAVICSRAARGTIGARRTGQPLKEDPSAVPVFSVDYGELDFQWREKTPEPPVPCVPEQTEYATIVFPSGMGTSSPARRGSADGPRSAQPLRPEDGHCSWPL
Programmed cell death protein 1/Programmed cell death 1 ligand 1, sequence (Q9NZQ7 whole entry): as the sequence (Q9NZQ7 whole entry) above

[13] = test system: A549; assay: Cytotoxicity against human A549 cells incubated for 24 hrs by CCK-8 assay; type: functional, cell-based; settings: A549, 24 h
[14] = target: T1, UDP-3-O-acyl-N-acetylglucosamine deacetylase; assay: Inhibition of Escherichia coli LpxC
[15] = target: Programmed cell death 1 ligand 1 (Homo sapiens) (UniProt Q9NZQ7); assay: Binding affinity to PD-L1 (unknown origin) assessed as association constant at equilibrium by ITC analysis
[16] = test system: Klebsiella pneumoniae; assay: Induction of intracellular ROS accumulation in Klebsiella pneumoniae ATCC 13883 incubated for 12 hrs by fluorescence microscopic analysis; type: functional, organism-based
[17] = test system: Klebsiella pneumoniae; assay: Antimicrobial activity against Klebsiella pneumoniae ATCC 13883 assessed as increase in percentage of bacterial cells by flow cytometry analysis; type: functional, organism-based
[18] = test system: Klebsiella pneumoniae; assay: Bactericidal activity against Klebsiella pneumoniae ATCC 13883 assessed as reduction in survival rate by colony counting method; type: functional
[19] = test system: Klebsiella pneumoniae; assay: Antibacterial activity against Klebsiella pneumoniae ATCC 13883 infected in Kunming mouse model assessed as reduction in alveolar space in lung at 2 mg/kg, iv by H and E staining based analysis; type: functional, organism-based
[20] = test system: Klebsiella pneumoniae; assay: Antibacterial activity against Klebsiella pneumoniae ATCC 13883 infected in Kunming mouse model assessed as reduction in bacterial proliferation at 2 mg/kg, iv in presence of biphenyl isopropyl ester; type: functional, organism-based
[21] = Initial plasma concentration in rat at 2 mg/kg, iv measured upto 24 hrs by LC-MS/MS analysis; type: ADME, organism-based; settings: in vivo, iv, 2 mg/kg, 24 h
[22] = Clearance in rat at 2 mg/kg, iv measured upto 24 hrs by LC-MS/MS analysis; type: ADME, organism-based; settings: in vivo
[23] = Volume of distribution at steady state in rat at 2 mg/kg, iv measured upto 24 hrs by LC-MS/MS analysis; type: ADME, organism-based; settings: in vivo, iv, 2 mg/kg, 24 h
[24] = Half life in rat at 2 mg/kg, iv measured upto 24 hrs by LC-MS/MS analysis; type: ADME, organism-based; settings: in vivo
[25] = AUC (0 to t) in rat at 2 mg/kg, iv measured upto 24 hrs by LC-MS/MS analysis; type: ADME, organism-based; settings: in vivo

SMILES | MIC50 [5] [µg/mL] | MIC50 [6] [µg/mL] | MIC50 [7] [µg/mL] | MIC50 [8] [µg/mL] | inhibition zone (IZ) [9] | inhibition zone (IZ) [10] | further results
CC(C)OC(=O)[C@@H](CO)NCc1cc(Cl)c(OCc2cccc(-c3ccccc3)c2Br)cc1OCc1cccnc1 | – | – | – | – | – | – | Kd [1]: 0.401 nM; Kd [2]: 0.254 nM; deltaH [3]: 1.13 kcal/mol; Activity [4]: Active
Cc1c(CN2CCC(C(=O)NC(CO)C(=O)NO)CC2)cccc1-c1ccccc1 (configuration not stated) | 2 | ≥ 16 | 8 | 4 | 11.6 mm | 10.1 mm | –
Cc1c(CN2CCC(C(=O)NC(C(=O)NO)C(C)O)CC2)cccc1-c1ccccc1 (configuration not stated) | 0.5 | 2 | 1 | 1 | 15.8 mm | 14.1 mm | –
Cc1c(CN2CCC(C(=O)NC(C(=O)NO)C(C)C)CC2)cccc1-c1ccccc1 (configuration not stated) | 4 | 2 | 4 | 8 | 9.5 mm | <=6 mm | –
COc1cc(OCc2cccc(-c3ccccc3)c2C)cc(OC)c1CNC(C(=O)NO)C(C)C (configuration not stated) | ≥ 16 | 4 | ≥ 16 | 8 | <=6 mm | 6.3 mm | –
COc1cc(OCc2cccc(-c3ccccc3)c2C)cc(OC)c1CNC(CO)C(=O)NO (configuration not stated) | 8 | ≥ 16 | 4 | 4 | <=6 mm | 8.1 mm | –
CCn1cc(C(=O)O)c(=O)c2cc(F)c(N3CCNCC3)cc21 [NORFLOXACIN] | 1 | 0.5 | 2 | 1 | 15.9 mm | 14.8 mm | –
Cc1c(COc2cccc(CNC(CO)C(=O)NO)c2)cccc1-c1ccccc1 (configuration not stated) | 0.5 | 0.5 | 1 | 0.5 | 15.2 mm | 13.8 mm | IC50 [11]: > 50000 nM; IC50 [12]: 109 nM; IC50 [13]: > 50000 nM; IC50 [14]: 8400 nM; Kd [1]: 0.873 nM; Kd [2]: 0.135 nM; Ka [15]: 4.17 10^5/M; deltaH [3]: 0.995 kcal/mol; Activity [16]: Active; Activity [17]: Active
COc1cc(OCc2cccc(-c3ccccc3)c2C)cc(OC)c1CNC(C(=O)NO)C(C)O (configuration not stated) | 1 | 2 | 4 | 1 | 9.4 mm | 8.9 mm | –
Cc1c(COc2cccc(CNC(C(=O)NO)C(C)C)c2)cccc1-c1ccccc1 (configuration not stated) | 4 | 8 | 4 | ≥ 16 | 8.6 mm | 6.6 mm | –
Cc1c(COc2cccc(CN3CCCC3C(=O)NO)c2)cccc1-c1ccccc1 (configuration not stated) | ≥ 16 | ≥ 16 | 4 | 4 | 7.2 mm | <=6 mm | –
COc1cc(OCc2cccc(-c3ccccc3)c2C)cc(OC)c1CN1CCCC1C(=O)NO (configuration not stated) | 1 | 2 | ≥ 16 | 1 | 11.3 mm | 9.1 mm | –
Cc1c(CN2CCC(C(=O)N3CCCC3C(=O)NO)CC2)cccc1-c1ccccc1 (configuration not stated) | 0.5 | 1 | 2 | 1 | 14.4 mm | 12.6 mm | IC50 [11]: > 50000 nM; IC50 [12]: 318 nM; IC50 [13]: > 50000 nM; IC50 [14]: 4300 nM; Kd [1]: 0.873 nM; Kd [2]: 0.135 nM; Ka [15]: 4.59 10^5/M; deltaH [3]: 0.735 kcal/mol; Activity [16]: Active; Activity [17]: Active
C[C@H](O)[C@H](NC(=O)c1ccc(C#Cc2ccc(CN3CCOCC3)cc2)cc1)C(=O)NO | 0.5 | 2 | 0.5 | 1 | 14.2 mm | 13.5 mm | Activity [16]: Active; Activity [17]: Active; Activity [18]: 83%; Activity [19]: Active; Activity [20]: Active; C0 [21]: 332 ng/mL; clearance [22]: 75.6 mL/min/kg; Vdss [23]: 1.42 L/kg; half-life [24]: 32.4 min; AUC(0-t) at 24 h [25]: 289 ng·h/mL
